Laboratory results reported in patent US20050106730A1, “Compositions and methods utilizing stable reporter cell lines for detection of pathway-specific signal transduction” (priority 1999, published 2005).

Legend:
[1] = system: MAPK pathway converging on Elk1 (GAL4-Elk1 fusion); assay: Luciferase reporter assay in RCLH-Elk1 stable reporter cells treated with extracellular stimuli; details: separate experiment
[2] = system: cAMP/CREB pathway (GAL4-CREB fusion); assay: Luciferase reporter assay in RCLH-CREB stable reporter cells treated with extracellular stimuli; format: cell-based, human; details: in the presence of 100 uM forskolin, 5 hours

Compound	Activation of MAPK pathways [1]	Stimulation of luciferase expression [2]
TGF-α: growth factor found to activate MAPK pathways	also activates MAPK pathways	–
CCCCCCCCCCCCCC(=O)O[C@@H]1[C@@H](C)[C@@]2(O)[C@@H](C=C(CO)C[C@]3(O)C(=O)C(C)=C[C@@H]23)[C@@H]2C(C)(C)[C@]12OC(C)=O [PMA, phorbol 12-myristate 13-acetate]	–	approximately 70 fold
